Legend:
[1] = Surface pressure and surface potential isotherms and Brewster angle microscopy at the air-buffer interface; type: physicochemical; conditions: 35 °C; for spreading / monolayer formation on the aqueous surface: PBS
Procedure: (§1) The lipid species were either synthesized as described above or obtained from commercial sources (e.g. Nu-Check-Prep, Elysian, MN) and studied on their own at first. A wide range of lipid mixtures were prepared by weighing selected compounds at specific ratios and further dilution in chloroform to obtain selected concentrations. A 2 mM concentration of the corresponding mixtures was used in the surface potential and pressure measurements and a 5 mM concentration in the evaporation resistance measurements discussed herein.
The lipid mixtures dissolved in chloroform or the formulations were spread onto the air-buffer interface of either a KSV minitrough (Helsinki, Finland) or a KSV large trough which was filled with PBS buffer. Chloroform was allowed to evaporate for 3 min before starting measurements. The surface pressure was measured using a Wilhelmy plate, the surface potential was measured using a KSV surface potential sensor (Espoo, Finland) and Brewster angle microscopy images were captured using a KSV NIMA microBAM (Espoo, Finland) instrument. The films were compressed at a constant rate of 5 or 10 mm/min and the subphase temperature was kept at 35±1° C. The measurements were performed in an acrylic box under an ozone-free atmosphere to prevent undesired oxidation. An ozone-free atmosphere was generated by passing dry air through ODS-3P ozone destruct unit (Ozone solutions, Hull, Iowa) at a rate of 76 l/min within the enclosure.
The organizational behavior of FAHFA/OAHFA and wax ester mixtures were investigated by measuring surface pressure and surface potential isotherms, and, imaging the monolayer structure with a Brewster angle microscope. A phosphate buffered saline (PBS) solution was used as an in vitro model of the ocular surface and the measurements were conducted at physiological temperature (35° C.). With this model system, it is possible to accurately simulate the conditions residing on the ocular surface and the changes occurring during a blink of the eye, both in terms of surface pressure and the capabilities of the monolayer to respread over many compression-expansion cycles. Thus, the study protocol provides the essential information required for evaluating the suitability of the composition in the intended applications. More details on the study protocol can be found in the inventors' previous publications on the topic (Paananen, Ekholm et. al. in Langmuir 2019, Ocul. Surf. 2020, J. Org. Chem. 2021).

[2] = Evaporation resistance of lipid films (modified Langmuir-Schaefer desiccant cartridge method); type: physicochemical; conditions: lipid film on PBS, 35 °C; compressed to Mma 2-40 Å^2/molecule
Procedure: as §1
Evaporation resistance is a property of the lipid film residing on top or above an aqueous surface, independent of the measurement method and conditions of the measurement. […] Evaporation resistance of the lipid film can be determined, for example, by measuring the evaporative flux from the aqueous surface without the lipid layer, Jw, and with a lipid film present, Jf. […] The lipid film evaporation resistance can be expressed as a function of measured quantities as rm=Δc(1/Jf−1/Jw).
In this example, the evaporation resistance was determined according to the method originally developed by Langmuir et al. (Langmuir, I. and Schaefer, V., J. 1943, J. Franklin Inst., Vol. 235, 119-162) although with certain modifications (as set out in Bland et al., Langmuir, 2019, 35, 3545-3552 (Supp. Info.). […]

| spreading / monolayer formation on the aqueous surface [1] | mean molecular area at surface pressure lift-off ([1]; pure lipid on PBS) [Å^2/molecule] | melting point [°C] | maximum evaporation resistance [2] [s/cm] | surface pressure at transition to a solid monolayer ([1]; pure lipid on PBS) [mN/m] | Structure (SMILES) |
| --- | --- | --- | --- | --- | --- |
| form liquid monolayers upon spreading | 70 |  |  |  | CCCCCCCC/C=C\CCCCCCCC(=O)OCCCCCCCCCCCCCCCCCCCC [AO, arachidyl oleate] |
|  |  | 36 to 37.5 |  |  | CCCCCCCC/C=C\CCCCCCCC(=O)OCCCCCCCCCCCCCCCCCCCCCCCC(C)C [Example 5, 24-methylpentacosyl oleate] |
| form liquid monolayers upon spreading | 140 |  | 3 to 5 | 2 | CCCCCCCC/C=C\CCCCCCCC(=O)OCCCCCCCCCCCCCCCCCCCC(=O)O [Example 20-OAHFA, 20-(oleoyloxy)eicosanoic acid] |

| Structure (SMILES) | spreading / monolayer formation on the aqueous surface [1] | mean molecular area at surface pressure lift-off ([1]; pure lipid on PBS) [Å^2/molecule] | melting point [°C] | maximum evaporation resistance [2] [s/cm] | surface pressure at transition to a solid monolayer ([1]; pure lipid on PBS) [mN/m] |
| --- | --- | --- | --- | --- | --- |
| CCCCCCCC/C=C\CCCCCCCC(=O)OCCCCCCCCCCCCCCCCCCCCCC [BO, behenyl oleate] | did not spread on the aqueous surface but formed solid aggregates instead |  |  |  |  |
